Test results published in PubChem BioAssay AID463206 (Broad Institute, 2010).
The source made the active and inactive calls.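 Rule for the calls: active = caspase luminescence falls with dose and the half-maximal concentration AC50 from the fitted curve is at or below a set limit; inconclusive = flat fit at 30 to 70% signal loss, or invalid fit; inactive = AC50 above the limit, or signal rises instead.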

These compounds were tested on INS-1E cytokine-induced caspase-3/7, Caspase-Glo luminescence, 48 h (assay: suppression of cytokine-driven beta-cell apoptosis – INS-1E rat cells, luminescence, orthogonal assay for beta-cell apoptosis protection project, dose response (AID 463206)).

SMILES	AC50
Cc1ccc(-c2c(C#N)c(N)n3c(nc4ccccc43)c2C#N)cc1	> 26 µM (inactive)
NC(=O)c1ccc(N2CCN(S(=O)(=O)c3cccs3)CC2)c([N+](=O)[O-])c1	> 26 µM (inactive)
CCC(CO)[n+]1c(C)cc(/C=C2\Sc3ccccc3N2Cc2ccccc2)cc1C (stereo unspecified)	> 26 µM (inactive)
CC(=O)Nc1ccc(NC(=O)CN(c2cccc([N+](=O)[O-])c2)S(C)(=O)=O)cc1	> 26 µM (inactive)
O=C(Nc1cccc(NC(=O)c2ccccc2Cl)c1)c1ccc([N+](=O)[O-])o1	> 26 µM (inactive)
CC1=C/C(=N\OS(=O)(=O)c2ccccc2)C(C(C)C)=CC1=O	> 26 µM (inactive)
COc1cc(C(=O)Oc2c(CN3CCOCC3)cc(Cl)c3cccnc23)cc(OC)c1OC	> 26 µM (inactive)
Cc1cc(NC2CCCCC2)nc(NCc2ccccc2)n1	> 26 µM (inactive)
C(=N\Nc1ncnc2sc3c(c12)CCC3)/c1cccs1	> 26 µM (inactive)
Cc1nc2ccccn2c1C(=O)/C=C/c1cccc([N+](=O)[O-])c1	> 26 µM (inactive)
COc1cc(CC(=O)Nc2nc(-c3ccc(F)c(F)c3)cs2)cc(OC)c1OC	> 26 µM (inactive)
S=C(Nc1ccc(Cl)cc1)Nc1cccc2cnccc12	> 26 µM (inactive)
Oc1ccc(Br)cc1-c1cc(-c2ccc(Cl)cc2)n[nH]1	> 26 µM (inactive)
CCOc1ccc2nc(NC(=O)c3cccc(-c4cc5ccccc5oc4=O)c3)sc2c1	> 26 µM (inactive)
O=C(Nc1nc(-c2ccccn2)cs1)c1ccc([N+](=O)[O-])o1	> 26 µM (inactive)
COc1ccccc1N1CC(C)(C)C(=O)N(C(=O)c2ccc(Cl)cc2)C1=S	> 12 µM (inactive)
O=C(N/N=C/c1c(O)ccc2ccccc12)c1[nH]ncc1Br	> 26 µM (inactive)
COc1ccc(CN(C)C(=O)c2ccc(NS(=O)(=O)c3ccc(F)cc3)cc2)c(OC)c1OC	> 26 µM (inactive)
O=C(N/N=C/c1cccc(F)c1)c1c(O)c2ccccc2[nH]c1=O	> 26 µM (inactive)
CCCCC[n+]1ccn(C2=C([O-])c3ccccc3C(=O)/C2=N\S(=O)(=O)c2ccccc2)c1	> 26 µM (inactive)
CN(C)C1CCN(Cc2cc(COCc3ccccc3)c3cccnc3c2O)C1 (stereo unspecified)	> 26 µM (inactive)
Fc1ccccc1/C=N/Nc1nc(-c2ccccn2)nc2ccccc12	> 26 µM (inactive)
O=C(CCSc1nc2ccccc2s1)N/N=C/c1c(O)ccc2ccccc12	> 26 µM (inactive)

SMILES	AC50
FC(F)(F)c1nnc(-c2ccccc2)nc1Sc1ccc(Cl)cc1	> 26 µM (inactive)
CCc1ccc(-c2nn(-c3ccccc3)cc2CSC(=N)N)cc1	> 26 µM (inactive)
O=C(Cc1ccc(Cl)cc1)c1c[nH]c(C(=O)NCc2cccnc2)c1	> 26 µM (inactive)
O=C(N/N=C/c1ccccc1O)c1cccc(C(F)(F)F)c1	> 26 µM (inactive)
O=C1CSC(c2cccnc2)N1CC1CC1 (stereo unspecified)	> 26 µM (inactive)
CCn1nc(C)c(CNC(=O)c2ccc(OC3CCN(Cc4ccccn4)CC3)cc2)c1C	> 26 µM (inactive)
Cc1ccc(C)c(S(=O)(=O)Nc2cc(SCC(=O)O)c(O)c3ccccc23)c1	> 26 µM (inactive)
Clc1ccc(-c2cc(-c3nnc4n3CCCCC4)c3ccccc3n2)cc1	> 26 µM (inactive)
CC(C)c1ccc(COc2ccc(C(=O)N3CCOCC3)cc2)cc1	> 26 µM (inactive)
COc1ccc(CNCCC(c2ccc(OC(C)C)cc2)c2ccccc2OC)cc1 (stereo unspecified)	> 26 µM (inactive)
O=C(c1ccccc1)C(CCC(CN1CCOCC1)C(=O)c1ccccc1)CN1CCOCC1 (stereo unspecified)	> 26 µM (inactive)
CCSC1=NCCN1C(=O)C(C)(C)Oc1ccc(Cl)cc1	> 26 µM (inactive)
COc1cccc(/C=N/NC(=O)c2cc(-c3ccccn3)nc3ccccc23)c1O	> 26 µM (inactive)
Cc1ccccc1Oc1nc(-c2ccccn2)nc2ccccc12	> 26 µM (inactive)
COc1cccc(/C=N/NC(=O)c2cc3c(OC)ccc(OC)c3[nH]2)c1O	> 26 µM (inactive)
Fc1ccc(CN(Cc2ccccc2)C(c2cccs2)c2nnnn2C2CCCCC2)cc1 (stereo unspecified)	> 26 µM (inactive)
Cc1cc(O)c2c(c1)C(=O)C13C(=C2O)C(=O)[C@H]2[C@@H](O)[C@@H]1[C@H]1[C@H](O)[C@@H]3C(=O)C3=C(O)c4c(O)cc(C)cc4C(=O)C312 (stereo partly specified)	21.6 µM
O=C(NCc1cccnc1)c1ccc(-c2cc3ccccc3oc2=O)cc1	> 26 µM (inactive)
CCn1c(C)nc2cc(-c3nnc(-c4c(-c5ccccc5)noc4C)o3)ccc21	> 26 µM (inactive)
O=C(Nc1nc(-c2ccccn2)cs1)c1ccc(Cl)s1	> 26 µM (inactive)
Cc1cccc(-n2c(C)cc(/C=N/n3cnnc3)c2C)c1	> 26 µM (inactive)
CCOc1ccccc1NC(=O)c1nc(S(=O)(=O)Cc2cccc(C)c2)ncc1Cl	> 26 µM (inactive)
CC(C)CC(=O)NC(c1cccs1)c1ccc2cccnc2c1O (stereo unspecified)	> 26 µM (inactive)
